From patent US12252524B2, “GIP/GLP1 co-agonist compounds” (Eli Lilly and Company, priority 2018, dated 2025)
Numbered stars: 1 amine (or outer) side, 2 acyl side, 3 side chain; on linkers, the order of the positions; unused ones are H or OH. Square brackets hold non-standard residues; d marks the D form. Side chains are listed from the residue outwards. Peptide text beside a SMILES is read from it. * marks the point of attachment. C20 diacid = O=C(O)CCCCCCCCCCCCCCCCCCC(=O)*; γGlu = O=C(O)[C@H](CCC(=O)[*:2])N[*:1]; AEEA = NCCOCCOCC(=O)O; Aib = CC(C)(N)C(=O)O

Legend:
[1] = target: T1, human Gcg receptor (Homo sapiens, UniProt P47871); experiment: [125I]-Glucagon binding (SPA), human Gcg receptor; details: read-out: hGLcgR Ki, nM (SEM, n)
T1 construct: expressed in transfected cells; crude membranes
Summary of the method: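 Crude membranes from cells expressing the receptor, prepared by hypotonic lysis in 50 mM Tris HCl pH 7.5 with protease inhibitors, homogenization and differential centrifugation, were used in a WGA-bead SPA. Binding buffer: 25 mM HEPES pH 7.4, 2.5 mM CaCl2, 1 mM MgCl2, bacitracin, Tween-20.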

[2] = target: T2, human GIP receptor (Homo sapiens, UniProt P48546); experiment: [125I]-GIP binding (SPA), human GIP receptor; details: read-out: hGIPR Ki, nM (SEM, n)
T2 construct: expressed in transfected cells; crude membranes
T2 sequence (P48546 22-466): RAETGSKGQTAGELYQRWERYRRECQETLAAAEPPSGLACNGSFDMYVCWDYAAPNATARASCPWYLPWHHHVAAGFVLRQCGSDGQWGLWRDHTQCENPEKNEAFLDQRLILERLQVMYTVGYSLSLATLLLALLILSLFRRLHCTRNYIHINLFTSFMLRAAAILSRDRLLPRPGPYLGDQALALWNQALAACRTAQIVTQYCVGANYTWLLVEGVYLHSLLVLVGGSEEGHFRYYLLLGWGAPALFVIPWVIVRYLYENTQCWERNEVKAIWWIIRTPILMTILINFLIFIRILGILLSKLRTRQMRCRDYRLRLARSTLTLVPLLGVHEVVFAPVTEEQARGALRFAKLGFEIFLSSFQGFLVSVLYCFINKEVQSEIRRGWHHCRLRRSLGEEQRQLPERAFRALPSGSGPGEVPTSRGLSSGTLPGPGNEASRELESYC

[3] = target: human GLP-1 receptor (GLP-1R) (Homo sapiens, UniProt P43220); experiment: cAMP pharmacological functional assay in presence of casein, hGLP-1R; format: cell-based; details: HEK293 cells expressing hGLP-1R, 0.1% Casein, geometric mean; read-out: hGLP1R cAMP Rel EC50 nM (SEM, n)
[4] = target: T3, gastric inhibitory peptide receptor (GIPR) (Homo sapiens, UniProt P48546); experiment: cAMP pharmacological functional assay in presence of casein, hGIPR; format: cell-based; details: HEK293 cells expressing hGIPR, 0.1% Casein, geometric mean; read-out: hGIPR cAMP Rel EC50 nM (SEM, n)
T3 sequence (P48546 22-466): T2 sequence (P48546 22-466)

[5] = target: human GLP-1R (Homo sapiens, UniProt P43220); experiment: [125I]-GLP-1 binding (SPA), human GLP-1 receptor; set-up: expressed in transfected cells; crude membranes; details: read-out: hGLP1R Ki, (nM) (SEM, n)
Summary of the method: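 Frozen cell pellets are lysed on ice in hypotonic Tris buffer, pH 7.5, homogenized, and centrifuged to a membrane pellet resuspended at about 1 to 3 mg/mL. Binding is then measured in HEPES-based buffer at pH 7.4, and curves are fitted to give IC50 and Ki.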

T1 sequence (P47871 26-477): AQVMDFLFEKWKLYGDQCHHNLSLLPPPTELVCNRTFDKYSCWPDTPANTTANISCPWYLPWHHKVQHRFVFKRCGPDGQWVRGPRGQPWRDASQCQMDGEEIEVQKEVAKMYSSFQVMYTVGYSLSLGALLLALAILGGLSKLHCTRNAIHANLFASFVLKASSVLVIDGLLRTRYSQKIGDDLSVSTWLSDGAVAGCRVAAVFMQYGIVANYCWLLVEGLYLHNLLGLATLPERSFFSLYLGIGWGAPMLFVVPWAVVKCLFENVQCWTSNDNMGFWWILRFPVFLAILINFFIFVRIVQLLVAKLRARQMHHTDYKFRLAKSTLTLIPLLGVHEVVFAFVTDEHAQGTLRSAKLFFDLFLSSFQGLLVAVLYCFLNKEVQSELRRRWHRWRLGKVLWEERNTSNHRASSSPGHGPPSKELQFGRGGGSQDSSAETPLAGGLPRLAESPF
human GLP-1 receptor (GLP-1R), sequence (P43220 24-463): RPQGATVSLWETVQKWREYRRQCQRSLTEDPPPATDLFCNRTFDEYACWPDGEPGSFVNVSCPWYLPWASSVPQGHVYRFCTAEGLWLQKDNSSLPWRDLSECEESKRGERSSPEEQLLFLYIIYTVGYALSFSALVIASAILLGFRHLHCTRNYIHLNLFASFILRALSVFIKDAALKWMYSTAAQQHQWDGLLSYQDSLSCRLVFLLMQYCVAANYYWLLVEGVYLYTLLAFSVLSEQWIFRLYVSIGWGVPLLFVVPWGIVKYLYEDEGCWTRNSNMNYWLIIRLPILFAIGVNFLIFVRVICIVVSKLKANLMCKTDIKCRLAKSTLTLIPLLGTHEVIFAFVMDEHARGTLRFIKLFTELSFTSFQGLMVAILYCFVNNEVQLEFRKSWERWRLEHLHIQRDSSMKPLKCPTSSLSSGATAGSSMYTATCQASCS
human GLP-1R, sequence (P43220 24-463): as above

With `CC[C@H](C)[C@H](NC(=O)[C@H](CC(C)C)NC(=O)[C@H](Cc1ccc(O)cc1)NC(=O)[C@H](CCC(=O)O)NC(=O)[C@@H](NC(=O)[C@H](Cc1ccccc1)NC(=O)[C@H](C)NC(=O)C(C)(C)NC(=O)[C@H](CCC(N)=O)NC(=O)[C@H](CCCCNC(=O)COCCOCCNC(=O)COCCOCCNC(=O)CC[C@H](NC(=O)CCCCCCCCCCCCCCCCCCC(=O)O)C(=O)O)NC(=O)[C@@H](NC(=O)[C@H](CCCCN)NC(=O)[C@H](CC(=O)O)NC(=O)[C@H](CC(C)C)NC(=O)[C@H](CC(C)C)NC(=O)[C@@H](NC(=O)[C@H](CO)NC(=O)[C@H](Cc1ccc(O)cc1)NC(=O)[C@H](CC(=O)O)NC(=O)[C@H](CO)NC(=O)[C@@H](NC(=O)[C@H](Cc1ccccc1)NC(=O)[C@@H](NC(=O)CNC(=O)[C@H](CCC(=O)O)NC(=O)C(C)(C)NC(=O)[C@@H](N)Cc1ccc(O)cc1)[C@@H](C)O)[C@@H](C)O)[C@@H](C)CC)[C@@H](C)CC)[C@@H](C)CC)C(=O)N[C@@H](CCC(=O)O)C(=O)NCC(=O)NCC(=O)N1CCC[C@H]1C(=O)N[C@@H](CO)C(=O)N[C@@H](CO)C(=O)NCC(=O)N[C@@H](C)C(=O)N1CCC[C@H]1C(=O)N1CCC[C@H]1C(=O)N1CCC[C@H]1C(=O)N[C@@H](CO)C(N)=O` [Example 30] (H-Y[Aib]EGTFTSDYSILLDKIK([AEEA-AEEA-γGlu-C20 diacid])Q[Aib]AFIEYLIEGGPSSGAPPPS-NH2) the Ki [1] was 123 nM, the Ki [2] was 0.151 nM and the EC50 [3] was 1.84 nM. It also gave an EC50 [4] of 0.114 nM and a Ki [5] of 6.2 nM.

With `CC[C@H](C)[C@H](NC(=O)[C@H](CCCCN)NC(=O)[C@H](CC(=O)O)NC(=O)[C@H](CC(C)C)NC(=O)[C@H](CC(C)C)NC(=O)[C@@H](NC(=O)[C@H](CO)NC(=O)[C@H](Cc1ccc(O)cc1)NC(=O)[C@H](CC(=O)O)NC(=O)[C@H](CO)NC(=O)[C@@H](NC(=O)[C@H](Cc1ccccc1)NC(=O)[C@@H](NC(=O)CNC(=O)[C@H](CCC(=O)O)NC(=O)C(C)(C)NC(=O)[C@@H](N)Cc1ccc(O)cc1)[C@@H](C)O)[C@@H](C)O)[C@@H](C)CC)C(=O)N[C@@H](C)C(=O)N[C@@H](CCCCNC(=O)COCCOCCNC(=O)COCCOCCNC(=O)CC[C@H](NC(=O)CCCCCCCCCCCCCCCCCCC(=O)O)C(=O)O)C(=O)NC(C)(C)C(=O)N[C@@H](C)C(=O)N[C@@H](Cc1ccccc1)C(=O)N[C@H](C(=O)N[C@@H](CCC(=O)O)C(=O)N[C@@H](Cc1ccc(O)cc1)C(=O)N[C@@H](CC(C)C)C(=O)N[C@H](C(=O)N[C@@H](CCC(=O)O)C(=O)NCC(=O)NCC(=O)N1CCC[C@H]1C(=O)N[C@@H](CO)C(=O)N[C@@H](CO)C(=O)NCC(=O)N[C@@H](C)C(=O)N1CCC[C@H]1C(=O)N1CCC[C@H]1C(=O)N1CCC[C@H]1C(=O)N[C@@H](CO)C(N)=O)[C@@H](C)CC)[C@@H](C)CC` [Example 31] (H-Y[Aib]EGTFTSDYSILLDKIAK([AEEA-AEEA-γGlu-C20 diacid])[Aib]AFIEYLIEGGPSSGAPPPS-NH2) the Ki [1] was 290 nM, the Ki [2] was 0.0275 nM and the EC50 [3] was 0.891 nM. It also gave an EC50 [4] of 0.388 nM and a Ki [5] of 6.58 nM.

With `CC[C@H](C)[C@H](NC(=O)[C@H](CCCCN)NC(=O)[C@H](CC(=O)O)NC(=O)[C@H](CC(C)C)NC(=O)[C@H](CC(C)C)NC(=O)[C@@H](NC(=O)[C@H](CO)NC(=O)[C@H](Cc1ccc(O)cc1)NC(=O)[C@H](CC(=O)O)NC(=O)[C@H](CO)NC(=O)[C@@H](NC(=O)[C@H](Cc1ccccc1)NC(=O)[C@@H](NC(=O)CNC(=O)[C@H](CCC(=O)O)NC(=O)C(C)(C)NC(=O)[C@@H](N)Cc1ccc(O)cc1)[C@@H](C)O)[C@@H](C)O)[C@@H](C)CC)C(=O)N[C@@H](C)C(=O)N[C@@H](CCC(N)=O)C(=O)NC(C)(C)C(=O)N[C@@H](CCCCNC(=O)COCCOCCNC(=O)COCCOCCNC(=O)CC[C@H](NC(=O)CCCCCCCCCCCCCCCCCCC(=O)O)C(=O)O)C(=O)N[C@@H](Cc1ccccc1)C(=O)N[C@H](C(=O)N[C@@H](CCC(=O)O)C(=O)N[C@@H](Cc1ccc(O)cc1)C(=O)N[C@@H](CC(C)C)C(=O)N[C@H](C(=O)N[C@@H](CCC(=O)O)C(=O)NCC(=O)NCC(=O)N1CCC[C@H]1C(=O)N[C@@H](CO)C(=O)N[C@@H](CO)C(=O)NCC(=O)N[C@@H](C)C(=O)N1CCC[C@H]1C(=O)N1CCC[C@H]1C(=O)N1CCC[C@H]1C(=O)N[C@@H](CO)C(N)=O)[C@@H](C)CC)[C@@H](C)CC` [Example 32] (H-Y[Aib]EGTFTSDYSILLDKIAQ[Aib]K([AEEA-AEEA-γGlu-C20 diacid])FIEYLIEGGPSSGAPPPS-NH2) the Ki [1] was 44.7 nM, the Ki [2] was 0.0205 nM and the EC50 [3] was 0.498 nM. It also gave an EC50 [4] of 0.179 nM and a Ki [5] of 3.96 nM.

`CC[C@H](C)[C@H](NC(=O)[C@H](CCCCN)NC(=O)[C@H](CC(=O)O)NC(=O)[C@H](CC(C)C)NC(=O)[C@H](CC(C)C)NC(=O)[C@@H](NC(=O)[C@H](CO)NC(=O)[C@H](Cc1ccc(O)cc1)NC(=O)[C@H](CC(=O)O)NC(=O)[C@H](CO)NC(=O)[C@@H](NC(=O)[C@H](Cc1ccccc1)NC(=O)[C@@H](NC(=O)CNC(=O)[C@H](CCC(=O)O)NC(=O)C(C)(C)NC(=O)[C@@H](N)Cc1ccc(O)cc1)[C@@H](C)O)[C@@H](C)O)[C@@H](C)CC)C(=O)N[C@@H](C)C(=O)N[C@@H](CCC(N)=O)C(=O)NC(C)(C)C(=O)N[C@@H](C)C(=O)N[C@@H](Cc1ccccc1)C(=O)N[C@@H](CCCCNC(=O)COCCOCCNC(=O)COCCOCCNC(=O)CC[C@H](NC(=O)CCCCCCCCCCCCCCCCCCC(=O)O)C(=O)O)C(=O)N[C@@H](CCC(=O)O)C(=O)N[C@@H](Cc1ccc(O)cc1)C(=O)N[C@@H](CC(C)C)C(=O)N[C@H](C(=O)N[C@@H](CCC(=O)O)C(=O)NCC(=O)NCC(=O)N1CCC[C@H]1C(=O)N[C@@H](CO)C(=O)N[C@@H](CO)C(=O)NCC(=O)N[C@@H](C)C(=O)N1CCC[C@H]1C(=O)N1CCC[C@H]1C(=O)N1CCC[C@H]1C(=O)N[C@@H](CO)C(N)=O)[C@@H](C)CC` [Example 33] (H-Y[Aib]EGTFTSDYSILLDKIAQ[Aib]AFK([AEEA-AEEA-γGlu-C20 diacid])EYLIEGGPSSGAPPPS-NH2; N-terminus assumed) showed a Ki [1] greater than 979 nM, a Ki [2] of 6.4 nM and an EC50 [3] of 251 nM. The EC50 [4] was 63.3 nM and the Ki [5] was 361 nM.

For `CC[C@H](C)[C@H](NC(=O)[C@H](CCCCN)NC(=O)[C@H](CC(=O)O)NC(=O)[C@H](CC(C)C)NC(=O)[C@H](CC(C)C)NC(=O)[C@@H](NC(=O)[C@H](CO)NC(=O)[C@H](Cc1ccc(O)cc1)NC(=O)[C@H](CC(=O)O)NC(=O)[C@H](CO)NC(=O)[C@@H](NC(=O)[C@H](Cc1ccccc1)NC(=O)[C@@H](NC(=O)CNC(=O)[C@H](CCC(=O)O)NC(=O)C(C)(C)NC(=O)[C@@H](N)Cc1ccc(O)cc1)[C@@H](C)O)[C@@H](C)O)[C@@H](C)CC)C(=O)N[C@@H](C)C(=O)N[C@@H](CCC(N)=O)C(=O)NC(C)(C)C(=O)N[C@@H](C)C(=O)N[C@@H](Cc1ccccc1)C(=O)N[C@H](C(=O)N[C@@H](CCCCNC(=O)COCCOCCNC(=O)COCCOCCNC(=O)CC[C@H](NC(=O)CCCCCCCCCCCCCCCCCCC(=O)O)C(=O)O)C(=O)N[C@@H](Cc1ccc(O)cc1)C(=O)N[C@@H](CC(C)C)C(=O)N[C@H](C(=O)N[C@@H](CCC(=O)O)C(=O)NCC(=O)NCC(=O)N1CCC[C@H]1C(=O)N[C@@H](CO)C(=O)N[C@@H](CO)C(=O)NCC(=O)N[C@@H](C)C(=O)N1CCC[C@H]1C(=O)N1CCC[C@H]1C(=O)N1CCC[C@H]1C(=O)N[C@@H](CO)C(N)=O)[C@@H](C)CC)[C@@H](C)CC` [Example 34] (H-Y[Aib]EGTFTSDYSILLDKIAQ[Aib]AFIK([AEEA-AEEA-γGlu-C20 diacid])YLIEGGPSSGAPPPS-NH2), the Ki [1] was 134 nM, the Ki [2] was 0.0467 nM and the EC50 [3] was 1.56 nM. It also gave an EC50 [4] of 0.36 nM and a Ki [5] of 3.41 nM.
